Data set [1] deals with EGFR (human epidermal growth factor receptor) (Homo sapiens (Human), UniProt P00533). Put plainly: In vitro kinase inhibitory activity, EGFR. The class given is biochemical. As for the experimental part:
(§1) Stop buffer was prepared from 100 mM HEPES, pH 7.5, 0.015% Brij-35, 0.2% Coating Reagent #3, and 50 mM EDTA.
(§2) Kinase reaction was performed according to the following procedures: (1) 2.5× kinase solution was prepared by adding kinase into 1× kinase base buffer; (2) 2.5× peptide solution was prepared by adding FAM-labeled peptide and ATP into 1× kinase base buffer; (3) 2.5× kinase solution (10 μL) was added to each well of the 384-well assay plate containing 5 μL of compound in 10% DMSO and then the assay plate was incubated at room temperature for 10 minutes; (4) 2.5× peptide solution (10 μL) was added to each well of the 384-well assay plate; and (5) stop buffer (25 μL) was added to stop the kinase reaction after incubation at 28° C. for a specified period of time.
(§3) Multifunctional microplate reader (BMG LABTECH, PHER Astar FS) with a 320 nm excitation wavelength was used to read and collected the data of by absorbing light at […], which was converted from the rate of 665 signal/620 signal.
(§4) Conversion data were copied, and then converted to inhibition values with the following formula: percent inhibition=(max−conversion)/(max−min)*100 where “max” stands for the DMSO control value, “conversion” stands for the sample value and “[…]” stands for the no-kinase control value. The data were fitted in XLfit to obtain IC50 values.

Data set [2] addresses HER2 (human epidermal growth factor receptor 2) (Homo sapiens (Human), UniProt P04626). Put plainly: In vitro kinase inhibitory activity, HER-2. Format: biochemical. As for the experimental part: as §1
as §2, with “time. […]” for “time.”
as §4

Data set [3] addresses EGFR T790M (human epidermal growth factor receptor T790M mutation) (Homo sapiens (Human), UniProt P00533, T790M). Put plainly: In vitro kinase inhibitory activity, EGFR T790M. The class given is biochemical. As for the experimental part: as §1, §2, §3, §4
Data set [4] is described as follows: Rat PK (pharmacokinetics after iv and po administration). The class given is in vivo. The settings on record: male, SD, plasma; for Vd: read-out: Vss; for bioavailability: po 5 vs iv 2 (g/kg [sic]; mg/kg in method), read-out: F (bioavailability). An excerpt: Materials used include Propranolol (internal standard), methyl alcohol, ammonium acetate, K2EDTA (potassium ethylenediaminetetraacetate), methane acid, acetonitrile, MTBE (methyl tert-butyl ether), Cremophor EL (polyoxyethylated castor oil), KolliphorHS 15 (polyethylene glycol 12-hydroxystearate), DMSO (dimethylsulfoxide), PEG400 (polyethylene glycol 400) and SD rat (male, 180-220 g, 7-8 weeks old, purchased from Hunan Slack King of Laboratory Animal Co., Ltd.), all of which are commercially available.
Each test compound prepared in above examples was completely dissolved in a mixture of 5% DMSO, 5% KolliphorHS 15 and 90% saline.
(1) The test sample stock solution was prepared by dissolving an accurately weighed test sample in DMSO followed by dilution to the concentration of 1 mg/mL with acetonitrile. The stock solution was stored under the condition of −20° C. for later use.
(2) Internal standard solution was prepared by diluting a certain amount of the Propranolol stock solution in the concentration of 1 mg/mL to 100 ng/mL with water.
Samples treated with liquid-liquid extraction and chromatographic separation were analyzed by triple quadrupole tandem mass spectrometer in multiple reaction monitoring (MRM) mode for quantitative analysis.
Pretreatment of plasma sample was performed according to the following procedures: (1) plasma sample (30 μL) was precisely measured, and internal standard (250 μL) was then added to the plasma sample which was then mixed by vortexing; (2) the sample was extracted once with 1 mL of MTBE and then centrifuged at 13000 rpm for 2 minutes at 4° C.; (3) supernatant (800 μL) was aspirated and dried with 96 holes nitrogen gas blowing; (4) the residue was dissolved with 150 μL of a mixture of methanol and water (v/v=1/1) and then mixed by vortexing; and (5) sampling: sample quantity was 8 μL.
Preparation of standard sample was performed according to the following procedures: (1) a pre-determined amount of the compound stock solution was precisely measured, and then was diluted to standard series of solution with acetonitrile; (2) each of the standard solution (20 μL) prepared above was precisely measured and to each was added 180 μL of blank plasma; (3) each sample was mixed by vortexing to obtain series of standard samples in which the plasma concentration was 3, 5, 10, 30, 100, 300, 1000, 3000, 5000 or 10000 ng/mL; and (4) standard curve was established.
The content of each test compound in rat plasma after administration was determined by LC/MS/MS.
Noncompartmental analysis to calculate pharmacokinetic parameters was performed with WinNonlin 6.1 software.

Where [5] appears, read: iv(2 g/kg) [sic], method says 2 mg/kg.
Where [6] appears, read: po(5 g/kg) [sic], method says 5 mg/kg.

The source of these data is patent US9556191B2, “Aminoquinazoline derivatives and their salts and methods of use thereof” (SUNSHINE LAKE PHARMA CO., LTD, priority 2013, dated 2017).

HER2 (human epidermal growth factor receptor 2), sequence (P04626 23-1255): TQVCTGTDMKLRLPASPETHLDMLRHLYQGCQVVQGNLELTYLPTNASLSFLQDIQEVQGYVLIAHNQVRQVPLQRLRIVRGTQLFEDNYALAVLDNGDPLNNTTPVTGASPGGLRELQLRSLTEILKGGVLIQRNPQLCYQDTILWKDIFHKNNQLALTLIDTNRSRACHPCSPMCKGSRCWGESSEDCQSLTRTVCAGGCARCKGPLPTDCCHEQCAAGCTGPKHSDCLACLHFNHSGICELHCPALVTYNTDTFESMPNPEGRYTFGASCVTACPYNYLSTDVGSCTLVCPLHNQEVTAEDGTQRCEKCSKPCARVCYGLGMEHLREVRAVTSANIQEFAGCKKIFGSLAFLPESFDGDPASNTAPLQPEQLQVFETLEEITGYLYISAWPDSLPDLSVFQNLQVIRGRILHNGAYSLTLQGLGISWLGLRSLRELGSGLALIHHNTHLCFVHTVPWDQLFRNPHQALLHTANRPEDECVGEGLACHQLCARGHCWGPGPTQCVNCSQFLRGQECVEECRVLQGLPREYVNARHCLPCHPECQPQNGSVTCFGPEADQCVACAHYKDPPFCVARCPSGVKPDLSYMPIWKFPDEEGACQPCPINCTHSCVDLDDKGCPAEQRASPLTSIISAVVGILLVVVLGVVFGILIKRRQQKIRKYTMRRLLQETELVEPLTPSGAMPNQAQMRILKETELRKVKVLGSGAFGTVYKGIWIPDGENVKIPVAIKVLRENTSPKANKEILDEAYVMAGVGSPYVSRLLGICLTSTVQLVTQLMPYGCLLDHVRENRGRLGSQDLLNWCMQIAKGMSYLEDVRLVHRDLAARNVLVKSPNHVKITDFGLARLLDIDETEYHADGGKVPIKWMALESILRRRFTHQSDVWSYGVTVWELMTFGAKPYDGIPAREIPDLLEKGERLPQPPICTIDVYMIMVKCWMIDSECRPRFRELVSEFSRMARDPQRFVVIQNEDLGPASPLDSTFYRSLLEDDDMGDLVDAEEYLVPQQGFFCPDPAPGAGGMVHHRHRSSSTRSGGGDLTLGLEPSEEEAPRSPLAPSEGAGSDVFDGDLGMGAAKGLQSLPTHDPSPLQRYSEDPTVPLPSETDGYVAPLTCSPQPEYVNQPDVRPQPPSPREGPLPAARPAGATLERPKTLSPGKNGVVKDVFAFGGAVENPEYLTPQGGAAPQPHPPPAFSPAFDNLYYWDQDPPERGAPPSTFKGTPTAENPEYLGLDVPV
EGFR (human epidermal growth factor receptor), sequence (P00533 25-1210): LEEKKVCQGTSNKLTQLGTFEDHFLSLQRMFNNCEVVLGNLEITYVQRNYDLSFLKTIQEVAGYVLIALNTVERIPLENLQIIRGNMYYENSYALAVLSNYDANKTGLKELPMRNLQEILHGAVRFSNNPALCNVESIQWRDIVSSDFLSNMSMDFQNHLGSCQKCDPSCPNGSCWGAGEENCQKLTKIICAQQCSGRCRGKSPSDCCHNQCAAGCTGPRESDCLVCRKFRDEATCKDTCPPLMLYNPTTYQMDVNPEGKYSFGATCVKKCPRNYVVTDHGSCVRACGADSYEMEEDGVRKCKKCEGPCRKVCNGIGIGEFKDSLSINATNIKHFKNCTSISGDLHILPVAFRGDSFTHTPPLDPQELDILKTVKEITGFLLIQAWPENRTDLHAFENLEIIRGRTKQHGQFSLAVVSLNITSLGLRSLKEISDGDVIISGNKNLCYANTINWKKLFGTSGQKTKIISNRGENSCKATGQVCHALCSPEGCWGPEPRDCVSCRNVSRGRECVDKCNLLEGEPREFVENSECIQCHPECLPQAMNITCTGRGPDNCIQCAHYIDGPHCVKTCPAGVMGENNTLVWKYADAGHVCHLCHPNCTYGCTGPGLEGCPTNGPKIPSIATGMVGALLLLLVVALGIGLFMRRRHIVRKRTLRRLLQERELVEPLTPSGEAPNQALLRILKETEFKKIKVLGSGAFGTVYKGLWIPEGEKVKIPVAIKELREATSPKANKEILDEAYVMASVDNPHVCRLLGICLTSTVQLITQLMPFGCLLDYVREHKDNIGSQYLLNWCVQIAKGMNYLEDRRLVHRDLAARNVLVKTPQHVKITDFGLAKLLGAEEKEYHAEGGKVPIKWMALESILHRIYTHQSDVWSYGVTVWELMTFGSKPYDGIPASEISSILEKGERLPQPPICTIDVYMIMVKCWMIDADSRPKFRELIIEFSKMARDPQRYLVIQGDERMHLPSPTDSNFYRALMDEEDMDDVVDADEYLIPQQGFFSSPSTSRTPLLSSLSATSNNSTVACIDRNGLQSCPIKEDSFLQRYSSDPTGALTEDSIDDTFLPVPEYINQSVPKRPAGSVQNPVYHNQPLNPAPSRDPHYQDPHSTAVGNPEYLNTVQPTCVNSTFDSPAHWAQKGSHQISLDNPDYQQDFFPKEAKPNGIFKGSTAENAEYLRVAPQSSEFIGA
EGFR T790M (human epidermal growth factor receptor T790M mutation), sequence (P00533 25-1210 T790M): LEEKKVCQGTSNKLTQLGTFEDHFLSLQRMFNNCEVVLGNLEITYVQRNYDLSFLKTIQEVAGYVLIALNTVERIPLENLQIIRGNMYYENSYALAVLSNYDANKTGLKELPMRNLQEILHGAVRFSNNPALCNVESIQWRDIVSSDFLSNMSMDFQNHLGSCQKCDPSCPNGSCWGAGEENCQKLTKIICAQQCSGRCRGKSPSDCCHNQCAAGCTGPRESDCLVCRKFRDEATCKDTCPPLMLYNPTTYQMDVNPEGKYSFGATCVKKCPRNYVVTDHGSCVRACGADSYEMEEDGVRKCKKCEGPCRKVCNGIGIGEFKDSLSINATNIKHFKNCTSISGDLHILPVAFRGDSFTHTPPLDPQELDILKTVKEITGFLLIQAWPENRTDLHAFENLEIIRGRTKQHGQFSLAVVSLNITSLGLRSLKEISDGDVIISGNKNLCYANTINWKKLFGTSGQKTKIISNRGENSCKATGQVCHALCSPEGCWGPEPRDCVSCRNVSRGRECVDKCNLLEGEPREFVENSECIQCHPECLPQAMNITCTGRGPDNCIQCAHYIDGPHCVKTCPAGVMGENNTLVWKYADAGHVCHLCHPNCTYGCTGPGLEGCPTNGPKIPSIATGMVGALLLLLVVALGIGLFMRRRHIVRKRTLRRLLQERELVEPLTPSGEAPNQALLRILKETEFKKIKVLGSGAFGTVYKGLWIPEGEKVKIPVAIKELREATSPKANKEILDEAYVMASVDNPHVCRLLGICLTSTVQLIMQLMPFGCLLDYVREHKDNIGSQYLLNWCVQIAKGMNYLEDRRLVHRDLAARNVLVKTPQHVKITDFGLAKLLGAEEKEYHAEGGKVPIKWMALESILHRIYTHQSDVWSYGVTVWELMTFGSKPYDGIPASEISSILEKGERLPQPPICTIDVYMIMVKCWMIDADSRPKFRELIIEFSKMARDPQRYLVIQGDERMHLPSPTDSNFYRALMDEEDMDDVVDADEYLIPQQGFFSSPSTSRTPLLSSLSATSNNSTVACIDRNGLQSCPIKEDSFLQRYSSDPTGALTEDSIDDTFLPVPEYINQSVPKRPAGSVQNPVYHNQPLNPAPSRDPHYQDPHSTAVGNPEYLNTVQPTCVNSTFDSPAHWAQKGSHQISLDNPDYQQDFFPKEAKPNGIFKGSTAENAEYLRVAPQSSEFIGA

With `COc1cc2ncnc(Nc3ccc(Cl)c(Cl)c3F)c2cc1NC(=O)/C=C/CN1C[C@@H]2OCCO[C@@H]2C1` [Example 31, (E)-N-(4-((3,4-Dichloro-2-fluorophenyl)amino)-7-methoxyquinazolin-6-yl)-4-((4aR,7aS)-tetrahydro-2H-[1,4]dioxino[2,3-c]pyrrol-6(3H)-yl)but-2-enamide], half-maximal inhibition in data set [1] (IC50) was put at 2.1 nM. Moreover, in data set [2], the IC50 (as a rule, the concentration needed to halve the response being measured) was found to be 9.1 nM. In data set [3], this compound displayed an IC50 of 6.4 nM. Further, in data set [4] (setting [5]), the area under the curve AUC(0-t) (as a rule, exposure summed from dosing to a finite time, without extrapolation to infinity) amounted to 2990 ng·h/mL; the highest level (Cmax) was 1210 ng/mL; the half-life – broadly, the time needed for the level to fall by half in the phase considered – is 3.66 h; the Vd is 2.58 L/kg. Also, the bioavailability in data set [4] was 93.5%. In data set [4] (setting [6]), the AUC(0-t) worked out at 6980 ng·h/mL, the highest level (Cmax) was 794 ng/mL and the half-life is 3.16 h.

`COc1cc2ncnc(Nc3ccc4c(cnn4Cc4cccc(F)c4)c3)c2cc1NC(=O)/C=C/CN1C[C@@H]2OCCO[C@@H]2C1` [Example 27, (E)-N-(4-((1-(3-Fluorobenzyl)-1H-indazol-5-yl)amino)-7-methoxyquinazolin-6-yl)-4-((4aR,7aS)-tetra hydro-2H-[1,4]dioxin[2,3-c]pyrrol-6(3H)-yl)but-2-enamide]: in data set [1], the midpoint of inhibition, the IC50, lay at 7.9 nM. The same compound came in with a half-inhibitory concentration (IC50) in data set [2] of 2.2 nM. Besides, the IC50 in data set [3] is 22.9 nM. Further, in data set [4] (setting [5]), the AUC(0-t) stood at 1190 ng·h/mL, the maximum concentration (Cmax) (usually the highest concentration seen after dosing) came to 923 ng/mL, the half-life was 1.97 h and the Vd amounted to 3.65 L/kg. Besides, the bioavailability in data set [4] was 10.8%. In data set [4] (setting [6]), this compound showed an AUC(0-t) of 303 ng·h/mL, a Cmax of 67.8 ng/mL and a half-life of 2.33 h.

In turn, `COc1cc2ncnc(Nc3ccc(OCc4ccccn4)c(Cl)c3)c2cc1NC(=O)/C=C/CN1C[C@@H]2OCCO[C@@H]2C1` [Example 23, (E)-N-(4-((3-Chloro-4-(pyridin-2-ylmethoxy)phenyl)amino)-7-methoxyquinazolin-6-yl)-4-((4 aR,7aS)tetrahydro-2H-[1,4]dioxino[2,3-c]pyrrol-6(3H)-yl)but-2-enamide] returned an IC50 in data set [1] of 60.4 nM. Moreover, the IC50 in data set [2] worked out at 1.8 nM. In data set [3], this compound displayed an IC50 of 8.5 nM. Also, in data set [4] (setting [5]), the AUC(0-t) was 7560 ng·h/mL, the peak concentration (Cmax) is 2770 ng/mL, the half-life is 3.06 h and the Vd is 0.88 L/kg. Besides, the bioavailability in data set [4] is 73.5%. Besides, in data set [4] (setting [6]), the AUC(0-t) amounted to 13900 ng·h/mL, the Cmax was found to be 1930 ng/mL and the half-life was 2.77 h.

Turning to `O=C(/C=C/CN1C[C@@H]2OCCO[C@@H]2C1)Nc1cc2c(Nc3ccc(Cl)c(Cl)c3F)ncnc2cc1O[C@H]1CCOC1` [Example 34, (E)-N-(4-((3,4-Dichloro-2-fluorophenyl)amino)-7-(((S)-tetrahydrofuran-3-yl)oxy)quinazolin-6-yl)-4-((4aR,7aS)-tetrahydro-2H-[1,4]dioxino[2,3-c]pyrrol-6(3H)-yl)but-2-enamide], the IC50 in data set [1] was 3.3 nM. In data set [2], this compound registered an IC50 of 20.3 nM. In data set [3], this compound came in with an IC50 of 7 nM. Besides, in data set [4] (setting [5]), the exposure AUC(0-t) amounted to 951 ng·h/mL, the Cmax turned out to be 645 ng/mL, the half-life is 1.15 h and the Vd is 3.18 L/kg. Further, the bioavailability in data set [4] was 68.7%. Also, in data set [4] (setting [6]), the exposure AUC(0-t) came out at 1550 ng·h/mL, the highest level (Cmax) was 378 ng/mL and the half-life was 1.4 h.

As for `CCOc1cc2ncnc(Nc3ccc4c(cnn4Cc4cccc(F)c4)c3)c2cc1NC(=O)/C=C/CN1C[C@@H]2OCCO[C@@H]2C1` [Example 28, (E)-N-(7-Ethoxy-4-((1-(3-fluorobenzyl)-1H-indazol-5-yl)amino)quinazolin-6-yl)-4-((4aR,7aS)-tetrahydro-2H-[1,4]dioxino[2,3-c]pyrrol-6(3H)-yl)but-2-enamide], the values for the 50% inhibitory concentration (IC50) in data set [1], in data set [2] and in data set [3] were 40.1 nM, 1.6 nM and 14.5 nM, respectively. Besides, the exposure AUC(0-t) is 692 ng·h/mL in data set [4] (setting [5]) and 721 ng·h/mL in data set [4] (setting [6]). Also, the Cmax in data set [4] (setting [5]) amounted to 450 ng/mL; in data set [4] (setting [6]), 147 ng/mL. Further, the half-life was 1.99 h in data set [4] (setting [5]) and 1.41 h in data set [4] (setting [6]). For the same compound, the Vd in data set [4] (setting [5]) amounted to 6.66 L/kg. Besides, the bioavailability in data set [4] turned out to be 41.5%.

In the case of `CCOc1cc2ncnc(Nc3ccc(Cl)c(Cl)c3F)c2cc1NC(=O)/C=C/CN1C[C@@H]2OCCO[C@@H]2C1` [Example 32, (E)-N-(4-((3,4-Dichloro-2-fluorophenyl)amino)-7-ethoxyquinazolin-6-yl)-4-((4aR,7aS)-tetrahydro-2H-[1,4]dioxino[2,3-c]pyrrol-6(3H)-yl)but-2-enamide], in data set [1], 1.2 nM corresponded to half-maximal inhibition (IC50). In data set [2], the half-inhibitory concentration (IC50) stood at 7 nM. The compound further came in with a half-maximal inhibitory concentration (IC50) in data set [3] of 4 nM. Moreover, in data set [4] (setting [5]), the AUC(0-t) amounted to 2170 ng·h/mL, the peak level (Cmax) was 1000 ng/mL, the half-life was 2.95 h and the Vd is 2.97 L/kg. Besides, the bioavailability in data set [4] was 108%. In data set [4] (setting [6]), this compound showed an exposure AUC(0-t) of 6220 ng·h/mL, a maximum concentration (Cmax) of 748 ng/mL and a half-life of 2.97 h.

For the compound `CCOc1cc2ncnc(Nc3ccc(OCc4ccccn4)c(Cl)c3)c2cc1NC(=O)/C=C/CN1C[C@@H]2OCCO[C@@H]2C1` [Example 24, (E)-N-(4-((3-Chloro-4-(pyridin-2-ylmethoxy)phenyl)amino)-7-ethoxyquinazolin-6-yl)-4-((4aR,7aS)-tetrahydro-2H-[1,4]dioxino[2,3-c]pyrrol-6(3H)-yl)but-2-enamide], in data set [1], half-maximal inhibition (IC50) required 18.4 nM. This compound also had an IC50 in data set [2] of 1.7 nM. In data set [3], this compound gave an IC50 of 4.2 nM. In addition, in data set [4] (setting [5]), the AUC(0-t) came out at 10500 ng·h/mL, the Cmax amounted to 2930 ng/mL, the half-life is 3.59 h and the Vd turned out to be 0.79 L/kg. Moreover, the bioavailability in data set [4] was 87.1%. Besides, in data set [4] (setting [6]), the exposure AUC(0-t) came out at 22900 ng·h/mL, the peak level (Cmax) was 2770 ng/mL and the half-life is 3.49 h.

Take `O=C(/C=C/CN1C[C@@H]2OCCO[C@@H]2C1)Nc1cc2c(Nc3ccc(OCc4ccccn4)c(Cl)c3)ncnc2cc1O[C@H]1CCOC1` [Example 25, (E)-N-(4-((3-Chloro-4-(pyridin-2-ylmethoxy)phenyl)amino)-7-(((S)-tetrahydrofuran-3-yl)oxy)quinazolin-6-yl)-4-((4aR,7aS)-tetrahydro-2H-[1,4]dioxino[2,3-c]pyrrol-6(3H)-yl)but-2-enamide]: the half-inhibitory concentration (IC50) in data set [1] stood at 8.6 nM. In addition, the concentration for half-maximal inhibition (IC50) in data set [2] turned out to be 2.5 nM. Further, the IC50 in data set [3] came to 5.9 nM. Further, in data set [4] (setting [5]), the area under the curve AUC(0-t) was 4530 ng·h/mL, the highest concentration (Cmax) is 4110 ng/mL, the half-life was 1.42 h and the Vd was found to be 0.65 L/kg. For the same compound, in data set [4], the bioavailability was 5.94%. In data set [4] (setting [6]), this compound showed an AUC(0-t) of 474 ng·h/mL, a peak concentration (Cmax) of 73 ng/mL and a half-life of 4.42 h.
